Experiments:
[1] = target: Neuraminidase (Influenza A virus) (UniProt B4URF0); conditions: A/Anhui/2005(H5N1), at 1 µM
[2] = target: Neuraminidase (Influenza A virus, UniProt B4URF0); design: species or system A/Anhui/2005(H5N1)
[3] = target: Neuraminidase (Influenza A virus) (UniProt B4URF0); conditions: A/Anhui/2005(H5N1), at 10 µM
[4] = in vitro; conditions: human, liver microsomes
[5] = in vitro; conditions: human, liver microsomes; remark: listed apart in the source
[6] = Octanol-phosphate buffered saline partition coefficient, log D of compound at pH 7.6 at 1 mg after 24 hrs by HPLC analysis; format: physicochemical
[7] = in vitro; conditions: human, liver microsomes; remark: listed apart in the source
[8] = Octanol-phosphate buffered saline partition coefficient, log D of compound at pH 6.8 at 1 mg after 24 hrs by HPLC analysis; format: physicochemical
[9] = in vitro; conditions: human, liver microsomes; remark: listed apart in the source
[10] = in vitro; conditions: human, liver microsomes; remark: listed apart in the source
[11] = Octanol-phosphate buffered saline partition coefficient, log D of compound at pH 7.4 at 1 mg after 24 hrs by HPLC analysis; format: physicochemical
[12] = in vitro; conditions: human, liver microsomes; remark: listed apart in the source
[13] = in vitro; conditions: human, liver microsomes; remark: listed apart in the source
[14] = Octanol-phosphate buffered saline partition coefficient, log D of compound at pH 7 at 1 mg after 24 hrs by HPLC analysis; format: physicochemical
[15] = in vitro; conditions: human, liver microsomes; remark: listed apart in the source

Neuraminidase, sequence (B4URF0 whole entry): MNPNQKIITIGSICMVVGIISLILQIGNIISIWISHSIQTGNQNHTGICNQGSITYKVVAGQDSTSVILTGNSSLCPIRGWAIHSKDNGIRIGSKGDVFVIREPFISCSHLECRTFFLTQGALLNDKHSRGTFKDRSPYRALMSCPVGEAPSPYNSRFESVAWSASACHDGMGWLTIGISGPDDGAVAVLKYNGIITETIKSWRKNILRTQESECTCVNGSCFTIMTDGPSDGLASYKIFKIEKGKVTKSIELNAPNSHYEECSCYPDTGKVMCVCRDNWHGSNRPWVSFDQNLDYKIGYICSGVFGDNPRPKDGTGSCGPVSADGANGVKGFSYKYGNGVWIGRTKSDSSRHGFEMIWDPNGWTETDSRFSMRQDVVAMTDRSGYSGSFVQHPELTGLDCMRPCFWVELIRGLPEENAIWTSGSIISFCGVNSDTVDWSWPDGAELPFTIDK
Neuraminidase (Influenza A virus), sequence (B4URF0 as listed by the source): as the sequence (B4URF0 whole entry) above

Structure (SMILES): CCC(CC)O[C@@H]1C=C(C(=O)N[C@H](Cc2ccccc2)C(=O)O)C[C@H](N)[C@H]1NC(C)=O
- inhibition [1]: 21.1%
- IC50 [2]: 21.9 µM
- inhibition [3]: 80.4%

Structure (SMILES): O=C(O)Cc1ccccc1Nc1c(Cl)cccc1Cl [DICLOFENAC]
- half-life at 1 µM [4]: 11.6 min
- CLint scaled at 1 µM [5]: 108 mL/min/kg
- microsomal CLint at 1 µM [5]: 120 µL/min/mg

Structure (SMILES): CCC(CC)O[C@@H]1C=C(C(=O)N[C@@H](CC(=O)OC)c2ccccc2)C[C@H](N)[C@H]1NC(C)=O
- inhibition [1]: 26.5%
- inhibition [3]: 56.7%

Structure (SMILES): CCC(CC)O[C@@H]1C=C(C(=O)NCCCc2ccccc2)C[C@H](N)[C@H]1NC(C)=O
- inhibition [1]: 13.5%
- inhibition [3]: 19.3%

Structure (SMILES): CCC(CC)O[C@@H]1C=C(C(=O)N[C@@H](C(=O)O)C2CC2)C[C@H](N)[C@H]1NC(C)=O
- IC50 [2]: 46.4 µM
- inhibition [3]: 85.7%

Structure (SMILES): CCC(CC)O[C@@H]1C=C(C(=O)N[C@H](C)C(=O)O)C[C@H](N)[C@H]1NC(C)=O
- inhibition [1]: 27.8%
- IC50 [2]: 24.4 µM
- inhibition [3]: 81.1%

Structure (SMILES): CCC(CC)O[C@@H]1C=C(C(=O)N[C@@H](C(=O)O)C(C)(C)C)C[C@H](N)[C@H]1NC(C)=O
- half-life at 1 µM [4]: > 145 min
- logD at 24 h [6]: -0.209
- CLint scaled at 1 µM [5]: < 8.6 mL/min/kg
- microsomal CLint at 1 µM [5]: < 9.6 µL/min/mg
- remaining at 20 min, 1 µM [7]: 106%
- logD at 24 h [8]: -0.0458
- inhibition [1]: 58.3%
- remaining at 1 h, 1 µM [9]: 92.9%
- IC50 [2]: 1.3 µM
- remaining at 5 min, 1 µM [10]: 111%
- logD at 24 h [11]: -0.116
- remaining at 0.5 h, 1 µM [12]: 95.5%
- remaining at 10 min, 1 µM [13]: 87.3%
- inhibition [3]: 91%
- logD at 24 h [14]: -0.167
- remaining at 1 h, 1 µM [15]: 84.1%

Structure (SMILES): CCC(CC)O[C@@H]1C=C(C(=O)N[C@H](CC(C)C)C(=O)O)C[C@H](N)[C@H]1NC(C)=O
- inhibition [1]: 38.9%
- IC50 [2]: 6.55 µM
- inhibition [3]: 84.4%

Structure (SMILES): C[C@]12CC[C@H]3[C@@H](CCC4=CC(=O)CC[C@@]43C)[C@@H]1CC[C@@H]2O [TESTOSTERONE]
- remaining at 20 min, 1 µM [7]: 37.8%
- remaining at 1 h, 1 µM [9]: 99.3%
- remaining at 5 min, 1 µM [10]: 64.8%
- remaining at 0.5 h, 1 µM [12]: 21.5%
- remaining at 10 min, 1 µM [13]: 58.9%
- remaining at 1 h, 1 µM [15]: 5.2%

Structure (SMILES): CCC(CC)O[C@@H]1C=C(C(=O)N[C@@H](C(=O)O)c2ccccc2)C[C@H](N)[C@H]1NC(C)=O
- inhibition [3]: 8.3%

Structure (SMILES): CCCC[C@@H](NC(=O)C1=C[C@@H](OC(CC)CC)[C@H](NC(C)=O)[C@@H](N)C1)C(=O)O
- IC50 [2]: 30.7 µM
- inhibition [3]: 85.5%

Structure (SMILES): CCC(CC)O[C@@H]1C=C(C(=O)N[C@H](Cc2ccccc2)C(=O)OC)C[C@H](N)[C@H]1NC(C)=O
- inhibition [1]: 24.9%
- inhibition [3]: 63.2%

Structure (SMILES): CCC(C)C[C@@H](NC(=O)C1=C[C@@H](OC(CC)CC)[C@H](NC(C)=O)[C@@H](N)C1)C(=O)OC (some centres not stated)
- inhibition [1]: 23.6%
- inhibition [3]: 50.5%

Structure (SMILES): CCC(CC)O[C@@H]1C=C(C(=O)NCCCCc2ccccc2)C[C@H](N)[C@H]1NC(C)=O
- inhibition [1]: 24.7%
- inhibition [3]: 29.6%

Structure (SMILES): CCC(CC)O[C@@H]1C=C(C(=O)N[C@@H](C(=O)O)C(C)C)C[C@H](N)[C@H]1NC(C)=O
- inhibition [1]: 57.6%
- IC50 [2]: 4.18 µM
- inhibition [3]: 91.4%

Structure (SMILES): CCC(CC)O[C@@H]1C=C(C(=O)N[C@H](CC(C)C)C(=O)OC)C[C@H](N)[C@H]1NC(C)=O
- inhibition [1]: 13.1%
- inhibition [3]: 41.7%

Structure (SMILES): CCC(CC)O[C@@H]1C=C(C(=O)NC2CC2)C[C@H](N)[C@H]1NC(C)=O
- inhibition [1]: 5%
- inhibition [3]: 55.3%

Structure (SMILES): CCC(CC)O[C@@H]1C=C(C(=O)NCc2ccc(Cl)c(Cl)c2)C[C@H](N)[C@H]1NC(C)=O
- inhibition [3]: 21.4%

— ChEMBL document CHEMBL4265967, “Design, synthesis, and evaluation of carboxyl-modified oseltamivir derivatives with improved lipophilicity as neuraminidase inhibitors” (Bioorg Med Chem Lett, 2018)
